From a melting point compilation (Tetko et al.)

SMILES	melting point [°C]
CN1C(=O)c2ccccc2C1O (configuration not stated)	133
c1ccc2c(c1)nnc1ccccc12	158
CCCC(C)S (configuration not stated)	-169
Cc1ccccc1CCO	2
CSc1nn2c(C(F)(F)F)cc(C(F)(F)F)nc2c1C(N)=O	250
O=CC[C@@H](O)[C@H](O)CO	91
O=P1(NCCCl)OCCCN1CCCl (configuration not stated)	43.4
O=Cc1cccc(-c2ccc(C(=O)O)cc2)c1	231 to 233
CC(CC(=O)OOC(C)(C)C)CC(C)(C)C (configuration not stated)	-30
O[C@@H]1CC2=C(CCCC2)C[C@@H]1O	120 to 121
O[C@@H]1CC2=C(CC=CC2)C[C@@H]1O	139 to 140
CCCCCCCCNC(=S)NN	47 to 49
COC=CC(=O)OC	3 to 4
CC1=C(C(=O)OCc2ccccc2)C(c2ccco2)NC(=O)N1 (configuration not stated)	195
Cc1ccc2cc([N+](=O)[O-])ccc2n1	165 to 166
NCc1ccccc1Sc1ccccc1CO	97
CC1(C)Cc2cccc(C=O)c2O1	81 to 83
CCCC[N+](=O)[O-]	-81.3
CN1C(=C(O)Nc2ccccn2)C(=O)c2sccc2S1(=O)=O	211
CCCCCCCOO	35.5
CC1=Nc2c(ccc3ccccc23)C1(C)C	71
CCCC(C)CC (configuration not stated)	-119

SMILES	melting point [°C]
Cc1nc2ccccc2o1	9.5
OCc1ccc2sccc2c1	91 to 92
O=C(O)[C@@H]1CCN1	206 to 207
Clc1ccc2oc3c(Cl)c(Cl)c(Cl)c(Cl)c3c2c1	178
O=C(OCCOc1cc(OCCOC(=O)c2ccccc2)c([N+](=O)[O-])cc1[N+](=O)[O-])c1ccccc1	165
CC(=O)Oc1cn(C(C)=O)c2ccc(Br)c(Cl)c12	166
S=C(NN=Cc1c(-c2ccc(Cl)cc2)[nH]c2ccccc12)Nc1ccc(Cl)cc1	215 to 217
CSc1nc2ccccc2c(=O)n1-c1ccccc1	123 to 125
C=C(C)C(=O)Oc1ccc(C(C)(C)c2ccc(OC(=O)C(=C)C)cc2)cc1	70 to 76
CC1COC(Cn2cncn2)(c2ccc(Oc3ccc(Cl)cc3)cc2Cl)O1 (configuration not stated)	76
O=C(O)CSc1nnc(S)s1	168 to 169
CN1CCOc2cc(S(=O)(=O)Cl)cnc21	130 to 132
Cc1ccc(C(c2ccc(C)o2)c2cc(Br)ccc2O)o1	97
Cc1c([N+](=O)[O-])cc(C(=O)N2CCCCCC2)cc1[N+](=O)[O-]	106
CC1OC1P(=O)(O)O (configuration not stated)	94
CN1c2ccccc2Sc2ccc(CC(=O)O)cc21	146
Cc1cc(C)n2nc(N)c(/N=N/c3cc(Cl)c(Cl)cc3Cl)c2n1	295
COc1cc(C(=O)c2cccc(Br)c2)c([N+](=O)[O-])cc1OC	119
Fc1ccc2nc(C(F)(F)F)cc(Cl)c2c1	78 to 82
N#Cc1cc(O)cc(O)c1	188
CC(=O)Oc1cn(C(C)=O)c2ccc(Br)cc12	124 to 128

Second part, the compound after the results:

melting point [°C]	SMILES
107 to 109	COc1ccc(C(=O)c2ccc(-c3ccccc3)cc2)cc1OC
152	O=C(O)CCN1C(=O)c2ccccc2C1=O
94 to 95	CCCC(=O)c1ccc(N)cc1
179 to 181	CC(C)(C)OC(=O)Nc1ccc(C(=O)O)cc1
76.5	ON=C(C1CC1)C1CC1
49	Cc1cc(Br)ccc1N=C=O
290 to 292	Cc1nc2scc(-c3ccccc3)c2c(=O)n1NC(=O)c1ccc(Cl)cc1Cl
78 to 79	O=C1CCCc2ccc(Br)cc21
35	N#Cc1cc(F)c(F)cc1Cl
-45	CCCCC(CC)COC(C)=O (configuration not stated)
208	CC(=O)SC1CC2=CC(=O)CCC2(C)C2CCC3(C)C(CCC34CCC(=O)O4)C12 (configuration not stated)
193 to 200	COC(=O)c1ccc(S(=O)(=O)c2ccc(C(=O)OC)cc2)cc1
160 to 161	Cc1ccc(Cl)cc1NC(N)=S
163 to 166	O=C(Oc1ccc2ccccc2c1-c1c(OC(=O)c2ccccc2)ccc2ccccc12)c1ccccc1
1	FC(F)(F)c1cccc(Br)c1
237 to 238	O=C(O)c1cn(C2CCCCC2)c2ccccc2c1=O
220	O=C(O)c1cccnc1Sc1ccc(Cl)cc1
39 to 122	CCCCCc1ccc(OC(=O)c2ccc(OC(=O)c3ccc(CCCCC)cc3)cc2Cl)cc1
172 to 176	CC(C)n1c(C(F)(F)F)nc2cc(C(=O)O)ccc21
56	CC1CCC2(O)C(C)(C)C3CCC2(C)C1C3 (configuration not stated)
154 to 160	NNC(=O)c1ccc(Cl)c(Cl)c1
146	NC(=S)Nc1ccccc1Cl
-23.5	CCC(C1CCCCC1)C1CCCCC1
-54	CCCC(C)(C)C(C)(C)C
90	CN(C)C(=S)Oc1ccc2ccccc2c1

melting point [°C]	SMILES
164	CC(CCC(=O)O)C1CCC2C3CCC4CCCCC4(C)C3CCC12C (configuration not stated)
265	CC(=O)Nc1ccccc1/C=C/c1cc(/C=C/c2ccccc2)c([N+](=O)[O-])cc1[N+](=O)[O-]
6.2	CCCCCCCCCCCCCBr
150	O=C1/C(=N\Nc2cccc([N+](=O)[O-])c2)C(C(F)(F)F)=NN1c1ccccc1
169	CC(C)[C@@H]1C(=O)N(c2ccccc2)[C@@H]1c1ccccc1
81 to 84	COc1ccc(-c2ccccc2)cc1N
38	CN(C)c1ccc(N=C=O)cc1
172 to 173	c1ccc(/N=N/c2ccc(-c3ccc(NNc4ccccc4)cc3)cc2)cc1
85.5	CC(=CC(=O)O)C1CCCCC1
167	Cc1cc(C)c(C)c(S(=O)(=O)NCC(=O)O)c1C
210	Cc1cc(C(F)(F)F)n2nc(N)c(/N=N/c3ccc(Cl)cc3Cl)c2n1
231	Cc1cc(C)c(NC(N)=S)c(C)c1
241	O=c1oc(-c2c(F)cccc2Cl)cc2ccccc12
234 to 235	Cc1cc(C)c2c(N)c(C(N)=O)sc2n1
284	CC(=O)Nc1ccc(N=Nc2cc(C(C)C)c(N=Nc3ccc(NC(C)=O)cc3)cc2C)cc1
220 to 225	CCOC(=O)c1cc2cc([N+](=O)[O-])ccc2[nH]1
44	O=[N+]([O-])c1ccc(F)c(Cl)c1
195 to 202	NC(=O)N=NC(N)=O
122 to 125	O=C(O)c1ccc(F)c(F)c1
140	CC(=O)NNC(C)=O
166	O=P(c1ccccc1)(c1ccccc1)C1CCCCC1
108	O=C(OCC(=O)N1CCCCCC1)c1ccccc1
118	Oc1ccccc1C=NC1CCCCC1N=Cc1ccccc1O (configuration not stated)
77	CC(=O)n1nc(C(F)(F)F)cc1-c1ccccc1
